Data as given in paper PMC11724075, “Small-molecule-induced ERBB4 activation to treat heart failure” (Nature Communications, 2025).
“And” between values parts separate entries of the source, which are not always exact repeats. Equal entries are not always repeated.

How the values were obtained:
HCFs = assay: Bulk RNA sequencing and GSEA of human cardiac fibroblasts; type: cell-based; conditions: EF-1 32 µM, 16 h, log2-fold change >0, P adj <0.05
Procedure: iAMs were seeded at a density of 6 ×10^6 cells/mL in differentiation medium in 75-cm^2 cell culture flasks (Greiner Bio-One, 658175) and incubated for 9 days (d0 = day of seeding). HCF were seeded at a density of 3 × 10^6 cells/mL in fibroblast medium in 75-cm^2 cell culture flasks. […] Next, cells were lysed using 350 µL buffer RLT (Qiagen) supplemented with β-mercaptoethanol (100:1; Merck, 444203). Total RNA was isolated using the RNeasy Micro Kit (Qiagen, 74104) according to the manufacturer’s protocol, with an extra step of DNase digestion. The concentration and quality of RNA were determined using a Qubit fluorometer (Thermo Fisher Scientific) and 2100 Agilent BioAnalyzer (Agilent Technologies), respectively. Samples with an RNA integrity number >7 were used for library preparation. Sequencing libraries were prepared by Genewiz/Azenta (Leipzig) on cDNA prepared from polyadenylated mRNA. Libraries were sequenced using a NovaSeq 6000 (Illumina) with a read length of 2 ×150 bp.
Gene expression was quantified at the transcript level using Salmon (v1.10.0)[60], with the validatMappings and -gcBias parameters switched on, to the Rnor_6.0 or GRCh38 transcriptome. […] Functional enrichment of DEGs was determined using a hypergeometric test against the Gene Ontology database by using the ClueGO (v2.5.7)[64] module of Cytoscape (v3.9.1)[65] with Benjamini–Hochberg adjusted (FDR) P < 0.05. […]

[1] = tested on: mouse model of DOX-induced acute cardiac toxicity; assay: Acute high-dose DOX-induced cardiotoxicity, cTnI ELISA, wild type mice; type: in vivo; design: In vivo DOX experiment in female wild type mice with EF-1 (cTnI) / In vivo DOX experiment in fmale wild type mice with EF-1 (cTnI): unit not given here
Procedure: DOX (20 mg/kg; Pfizer, 4222) was administered intraperitoneally once on day 4 to induce cardiotoxicity. On day 7, mice were euthanized, serum samples were collected via the retrobulbar sinus and hearts were excised.
Serum samples were centrifuged for 15 min (1000 × g) at 4 °C and analyzed using a mouse cardiac Troponin I Type 3 ELISA kit (Novus Biologicals, NBP3–00456), according to the manufacturer’s instructions. Briefly, a 96-well microplate was coated with an anti-mouse TNNI3/cTnI primary antibody (Capture Antibody Solution). Standard solution or samples (100 μL) were added to the plate and incubated for 90 min at 37 °C. A biotinylated anti-mouse TNNI3/cTnI detection antibody was added, and the plate was incubated for 1 h at 37 °C followed by 3 washes with Wash Buffer. An avidin–horseradish peroxidase conjugate (Detection Antibody Solution) was then added, and the plate was incubated once more for 30 min at 37 °C. After 3 washes with Wash Buffer, Substrate Reagent was added. Following incubation for 15 min at 37 °C, the enzymatic reaction was terminated by the addition of Stop Solution. Sample optical densities at 450 nm were converted to […] concentrations of mouse TNNI3/cTnI using a calibration curve.

[2] = tested on: mouse model of AngII-induced myocardial fibrosis; assay: AngII-induced myocardial fibrosis mouse model, 1 week, heart mRNA by RT-qPCR; type: in vivo
Procedure: Four weeks after implantation, cardiac ultrasound was performed, mice were euthanized, and hearts were collected. A similar set-up was used for the 1-week study (Alzet, model 1007D) in male mice (n = 9-10 mice in every group).
RNA was extracted using Nucleospin RNA XS (Macherey-Nagel, 740902.50) according to the manufacturer’s instructions. For cDNA synthesis, total RNA was added to a mixture containing buffer with random hexamers and reverse transcriptase enzyme (TaqMan reverse transcription reagents, Applied biosystems, N8080234) after which samples were incubated for 10 min at 25 °C, 30 min at 48 °C, and 5 min at 95 °C. RT-qPCR was performed on QuantStudio 3 Real-time PCR system (Applied Biosystems) using Taqman Universal PCR Master Mix (Applied Biosystems, 4304437) and Taqman primers according to the manufacturer’s instructions. Settings were as follows: […] followed by 10 min at 95 °C, 40 cycles (45 cycles for ERBB4) of denaturation at 95 °C for 15 s, and 1 min at 60 °C. All reactions were run in duplicate, and all data were normalized against housekeeping genes glyceraldehyde-3-phosphate dehydrogenase (GAPDH), beta-actin (ACTB), or phosphoglycerate kinase 1 (PGK1). Expression levels were calculated using the comparative cycle method and expressed as fold change (FC) to appropriate controls. The following TaqMan primers were used (Thermo Fisher Scientific): GAPDH (Hs02758991_g1, Mm99999915_g1 and Rn01775763_g1), PGK1 (Hs99999906_m1), ID2 (Hs04187239_m1), BMPR1B (Hs01010965_m1), CACNA2D4 (Hs00297782_m1), DUSP2 (Hs00358879_m1), NR4A1 (Hs00374226_m1), SGK1 (Hs00178612_m1), COL1A1 (Mm00801666_g1), COL3A1 (Hs00943809_m1 and Mm00802305_g1), ERBB4 (Hs00955525_m1 and Rn00572447_m1), ACTB (Mm02619580_g1) and ANP (Mm01255747_g1).

[3] = AngII/EF-1, male wild type mice, EF-1 2 mg/kg/day, single animals, 2 mg/kg/day

Structure (SMILES): O=C(NC1CC1)C(Sc1nc2ccccc2c(=O)n1C1CCCC1)c1ccccc1 (stereo not shown) [EF-1]
- number of significantly downregulated genes compared to Veh (HCFs): 507
- number of significantly upregulated genes compared to Veh (HCFs): 336
- In vivo DOX experiment in female wild type mice with EF-1 (cTnI) ([1]; female wild type mice, DOX/EF-1 group, individual animals, Fig. 6b): 8.09 and 3.543 and 6.879 and 1.657 and 7.427 and 2.8057 and 6.224 and 3.861
- effect on DOX-induced increase in circulating cTnI plasma levels (in words) ([1]; female wild type mice, EF-1 2 mg/kg, 7 days, DOX 20 mg/kg IP day 4): significantly prevented the DOX-induced increase in circulating cTnI plasma levels
- In vivo DOX experiment in fmale wild type mice with EF-1 (cTnI) ([1]; fmale wild type mice, DOX/EF-1 group, individual animals, Fig. 6c): 273.659 and 148.181 and 198.844 and 244.235 and 228.218 and 232.739 and 226.672 and 236.453 and 259.198
- Col1a1 mRNA in heart, normalized FC compared to Ctrl [2, 3]: 0.89 and 1.45 and 5.23 and 1.1 and 0.7 and 1.4 and 1.83 and 0.45
- Col3a1 mRNA in heart, normalized FC compared to Ctrl [2, 3]: 0.3868 and 1.25 and 2.15 and 0.45 and 0.1877 and 2.4002 and 0.7979 and 0.9965
- Nppa mRNA in heart, normalized FC compared to Ctrl [2, 3]: 0.84 and 6.51 and 3.53 and 3.93 and 1.08 and 3.77 and 5.6 and 2.74 and 3.12
- effect on AngII-induced Col1a1 and Col3a1 mRNA expression (in words) ([2]; male wild type mice): significantly reduced
- effect on atrial natriuretic peptide (Nppa) expression (in words) ([2]; male wild type mice): significantly decreased
